According to ChEMBL document CHEMBL1128996, “Synthesis and preliminary pharmacological evaluation of analogues of caracasanamide, a hypotensive natural product” (1996):

Key:
Rattus norvegicus [1] = species: Rattus norvegicus; assay: Compound was tested for cardiac ionotropism and expressed as dP/dtmax.; format: functional; design: concentration or dose not given beside the values
Rattus norvegicus [2] = assay: Compound was tested for its effect on systolic blood pressure in anaesthetized rats after i.v. administration at a dose of 4.12 umol/kg.; format: functional, Artery
Rattus norvegicus [3] = assay: Compound was tested for its effect on heart rate in anaesthetized rats after i.v. administration at a dose of 4.12 umol/kg.; format: functional
Rattus norvegicus [4] = assay: Compound was tested for its effect on diastolic blood pressure in anaesthetized rats after i.v. administration at a dose of 4.12 umol/kg.; format: functional, Artery
Rattus norvegicus [5] = assay: Compound was tested for its effect on respiratory frequency in anaesthetized rats after i.v. administration at a dose of 4.12 umol/kg.; format: functional
Rattus norvegicus [6] = assay: Compound was tested for its effect on heart rate in anaesthetized rats after i.v. administration at a dose of 4.12 umol/kg; format: functional

Which dP/dt max (Rattus norvegicus [1]) does the source give for `CC(C)=CC/N=C(/N)NCCCCNC(=O)/C=C/c1ccccc1.CS(=O)(=O)O` here?
The dP/dt max was 6070 mmHg s-1.

And the Activity (Rattus norvegicus [2])?
Its Activity is -47 delta mmHg.

And the HR (Rattus norvegicus [3])?
Its HR is 19 delta beats min-1.

What about the Activity (Rattus norvegicus [4]) of the same compound?
The Activity was -59 delta mmHg.

What about the RF (Rattus norvegicus [5]) of the same compound?
Its RF is 12 delta beats min-1.

`COc1ccc(CC(=O)NCCCC/N=C(\N)NCC=C(C)C)cc1OC.CS(=O)(=O)O` was tested. Which dP/dt max (Rattus norvegicus [1]) did it give?
Its dP/dt max is 3088 mmHg s-1.

What about the Activity (Rattus norvegicus [2]) of the same compound?
Its Activity is -22 delta mmHg.

What about the HR (Rattus norvegicus [3]) of the same compound?
The HR was -24 delta beats min-1.

What about the Activity (Rattus norvegicus [4]) of the same compound?
Its Activity is -31 delta mmHg.

And the RF (Rattus norvegicus [5])?
The RF was 16 delta beats min-1.

How did the dP/dt max (Rattus norvegicus [1]) turn out when `COc1ccc(C#CC(=O)NCCCC/N=C(\N)NCC=C(C)C)cc1OC.CS(=O)(=O)O` was run?
Its dP/dt max is 3424 mmHg s-1.

What about the Activity (Rattus norvegicus [2]) of the same compound?
The Activity was -14 delta mmHg.

And the HR (Rattus norvegicus [3])?
Its HR is 14 delta beats min-1.

And the Activity (Rattus norvegicus [4])?
The Activity was -24 delta mmHg.

What about the RF (Rattus norvegicus [5]) of the same compound?
The RF was 14 delta beats min-1.

For `COc1ccc(/C=C/C(=O)NCCCC/N=C(\N)NCC=C(C)C)cc1OC.CS(=O)(=O)O`, which dP/dt max (Rattus norvegicus [1]) is on record?
Its dP/dt max is 2996 mmHg s-1.

What about the Activity (Rattus norvegicus [2]) of the same compound?
The Activity was -21 delta mmHg.

What about the HR (Rattus norvegicus [3]) of the same compound?
Its HR is 22 delta beats min-1.

What about the Activity (Rattus norvegicus [4]) of the same compound?
Its Activity is -18 delta mmHg.

And the RF (Rattus norvegicus [5])?
Its RF is 23 delta beats min-1.

For `COc1ccc(/C=C/C(=O)NCCCCCC/N=C(\N)NCC=C(C)C)cc1OC.CS(=O)(=O)O`, which dP/dt max (Rattus norvegicus [1]) is on record?
The dP/dt max was 648 mmHg s-1.

What about the Activity (Rattus norvegicus [2]) of the same compound?
Its Activity is -9 delta mmHg.

What about the Activity (Rattus norvegicus [4]) of the same compound?
The Activity was -8 delta mmHg.

And the RF (Rattus norvegicus [5])?
The RF was 4 delta beats min-1.

What about the HR (Rattus norvegicus [6]) of the same compound?
The HR was 4 delta beats min-1.

Which results are given for `COc1ccc([C@H]2C[C@@H]2C(=O)NCCCC/N=C(\N)NCC=C(C)C)cc1OC.CS(=O)(=O)O`?
dP/dt max (Rattus norvegicus [1]): 2781 mmHg s-1; Activity (Rattus norvegicus [2]): -30 delta mmHg; HR (Rattus norvegicus [3]): -19 delta beats min-1; Activity (Rattus norvegicus [4]): -26 delta mmHg; RF (Rattus norvegicus [5]): 19 delta beats min-1

Which dP/dt max (Rattus norvegicus [1]) does the source give for `COc1ccc(CCC(=O)NCCCC/N=C(\N)NCC=C(C)C)cc1OC.CS(=O)(=O)O` here?
Its dP/dt max is 2252 mmHg s-1.

What about the Activity (Rattus norvegicus [2]) of the same compound?
Its Activity is -15 delta mmHg.

What about the HR (Rattus norvegicus [3]) of the same compound?
Its HR is -12 delta beats min-1.

What about the Activity (Rattus norvegicus [4]) of the same compound?
Its Activity is -14 delta mmHg.

And the RF (Rattus norvegicus [5])?
Its RF is 6 delta beats min-1.

`COc1ccc(/C=C/C(=O)NCCCCC/N=C(\N)NCC=C(C)C)cc1OC.CS(=O)(=O)O` was tested. Which dP/dt max (Rattus norvegicus [1]) did it give?
Its dP/dt max is 5028 mmHg s-1.

And the Activity (Rattus norvegicus [2])?
The Activity was -34 delta mmHg.

What about the Activity (Rattus norvegicus [4]) of the same compound?
The Activity was -40 delta mmHg.

And the RF (Rattus norvegicus [5])?
The RF was -10 delta beats min-1.

And the HR (Rattus norvegicus [6])?
The HR was 8 delta beats min-1.

Which dP/dt max (Rattus norvegicus [1]) does the source give for `COc1ccc(C(=O)NCCCC/N=C(\N)NCC=C(C)C)cc1.CS(=O)(=O)O` here?
The dP/dt max was 3249 mmHg s-1.

What about the Activity (Rattus norvegicus [2]) of the same compound?
Its Activity is -26 delta mmHg.

What about the HR (Rattus norvegicus [3]) of the same compound?
The HR was -16 delta beats min-1.

What about the Activity (Rattus norvegicus [4]) of the same compound?
The Activity was -35 delta mmHg.

What about the RF (Rattus norvegicus [5]) of the same compound?
The RF was 17 delta beats min-1.
